Results from article PMC9186362, “Design and biological evaluation of substituted 5,7-dihydro-6H-indolo[2,3-c]quinolin-6-one as novel selective Haspin inhibitors” (Journal of Enzyme Inhibition and Medicinal Chemistry, 2022).

Assays:
PIP5K1B = target: T1, PIP5K1B (Homo sapiens, UniProt O14986); assay: SelectScreen Adapta; type: biochemical; conditions: ATP 10 µM, read-out: Percentage of inhibition
T1 construct: purchased Life Technologies
Procedure: (§1) We further evaluated the selectivity profile of compound 55 on a larger panel of kinases (SelectScreen Whole Panel, Life Technologies). The inhibition profile of 55, evaluated at 1 μM, is depicted on a dendrogram on Figure 3 where kinases inhibited by a minimum of 80% are shown. A full list of the kinases tested is shown on Table S1 in supplementary information.

PIP4K2A = PIP4K2A (Homo sapiens, UniProt P48426); assay: SelectScreen Adapta; type: biochemical; conditions: ATP 10 µM, read-out: Percentage of inhibition
Procedure: as §1

CDK7/cyclin H/MNAT1 = target: T2, CDK7/cyclin H/MNAT1 (Homo sapiens, UniProt P50613); assay: SelectScreen Adapta; type: biochemical; conditions: ATP Km, read-out: Percentage of inhibition
T2 construct: purchased Life Technologies
Procedure: as §1

CDK6/cyclin D1 = CDK6/cyclin D1 (Homo sapiens, UniProt Q00534); assay: SelectScreen Adapta; type: biochemical; conditions: ATP 10 µM, read-out: Percentage of inhibition
Procedure: as §1

GSG2 (Haspin) = target: T3, GSG2 (Haspin) (Homo sapiens, UniProt Q8TF76); assay: SelectScreen Adapta; type: biochemical; conditions: ATP Km, read-out: Percentage of inhibition
T3 construct: purchased Life Technologies (SelectScreen Whole Panel)
Procedure: as §1

PIK3C2G (PI3K-C2 gamma) = target: T4, PIK3C2G (PI3K-C2 gamma) (Homo sapiens, UniProt O75747); assay: SelectScreen Adapta; type: biochemical; conditions: ATP Km, read-out: Percentage of inhibition
T4 construct: purchased Life Technologies (SelectScreen Whole Panel service)
Procedure: as §1

PI4KB (PI4K beta) = target: T5, PI4KB (PI4K beta) (Homo sapiens, UniProt Q9UBF8); assay: SelectScreen Adapta; type: biochemical; conditions: ATP Km, read-out: Percentage of inhibition
T5 construct: purchased Life Technologies
Procedure: as §1

[1] = target: T6, PIK3CA/PIK3R3 (p110 alpha/p55 gamma) (Homo sapiens, UniProt P42336); assay: SelectScreen Adapta; type: biochemical; conditions: ATP Km, read-out: Percentage of inhibition
T6 construct: purchased Life Technologies (SelectScreen Whole Panel)
Procedure: as §1

HsHaspin = target: T7, HsHaspin (Homo sapiens, UniProt Q8TF76); assay: ADP-Glo kinase assay; type: biochemical, Homo sapiens (Hs)
T7 sequence (Q8TF76 1-798): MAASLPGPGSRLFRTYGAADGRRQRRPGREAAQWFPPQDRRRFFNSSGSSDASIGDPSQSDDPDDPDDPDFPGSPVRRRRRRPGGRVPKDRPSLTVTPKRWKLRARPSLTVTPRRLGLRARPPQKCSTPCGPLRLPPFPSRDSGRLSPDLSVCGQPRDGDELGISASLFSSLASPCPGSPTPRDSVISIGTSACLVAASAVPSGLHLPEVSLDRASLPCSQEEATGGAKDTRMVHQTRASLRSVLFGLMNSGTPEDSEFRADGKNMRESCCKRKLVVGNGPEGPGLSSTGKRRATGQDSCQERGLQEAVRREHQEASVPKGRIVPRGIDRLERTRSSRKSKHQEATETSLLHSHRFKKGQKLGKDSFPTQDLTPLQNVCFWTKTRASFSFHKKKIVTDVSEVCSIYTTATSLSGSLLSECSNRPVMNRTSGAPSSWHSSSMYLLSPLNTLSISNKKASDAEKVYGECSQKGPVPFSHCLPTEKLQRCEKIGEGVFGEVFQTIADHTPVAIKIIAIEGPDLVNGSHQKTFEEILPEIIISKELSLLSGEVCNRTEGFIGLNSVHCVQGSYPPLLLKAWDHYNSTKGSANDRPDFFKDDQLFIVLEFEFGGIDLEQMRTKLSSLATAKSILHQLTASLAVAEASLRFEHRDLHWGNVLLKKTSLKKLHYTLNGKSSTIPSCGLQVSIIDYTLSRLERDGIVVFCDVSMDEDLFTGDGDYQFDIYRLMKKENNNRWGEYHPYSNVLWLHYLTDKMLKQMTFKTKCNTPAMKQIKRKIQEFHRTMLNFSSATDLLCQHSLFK
Procedure: (§2) Kinase activities were determined using the ADP-Glo methodology (ADP-Glo Kinase Assay; Promega) according to the assay described by Nguyen et al.[32] except for MmCLK1. The later was assayed in the following buffer: 10 mM MgCl2, 1 mM EGTA, 1 mM DTT, 25 mM Tris-HCl pH 7.5, 50 µg/ml heparin, 0.15 mg/ml BSA, with 0.027 µg/µl of the following peptide: GRSRSRSRSRSR as substrate.

HsCdk5/p25 = HsCdk5/p25 (Homo sapiens, UniProt Q00535); assay: ADP-Glo kinase assay; type: biochemical, Homo sapiens (Hs); conditions: mean n = 2, % of maximum activity of DMSO control, read-out: % Residual activity at 1 μM CDK5
Procedure: as §2

HsGSK3β = HsGSK3β (Homo sapiens, UniProt P49841); assay: ADP-Glo kinase assay; type: biochemical, Homo sapiens (Hs); conditions: mean n = 2, % of maximum activity of DMSO control, read-out: % Residual activity at 1 μM GSK3β
Procedure: as §2

HsCdk9/Cyc E = HsCdk9/Cyc E (Homo sapiens, UniProt P50750); assay: ADP-Glo kinase assay; type: biochemical, Homo sapiens (Hs); conditions: mean n = 2, % of maximum activity of DMSO control, read-out: % Residual activity at 1 μM CDK9
Procedure: as §2

HsCdk2/Cyc A = HsCdk2/Cyc A (Homo sapiens, UniProt P24941); assay: ADP-Glo kinase assay; type: biochemical, Homo sapiens (Hs); conditions: mean n = 2, % of maximum activity of DMSO control, read-out: % Residual activity at 1 μM CDK2
Procedure: as §2

HsPIM1 = HsPIM1 (Homo sapiens, UniProt P11309); assay: ADP-Glo kinase assay; type: biochemical, Homo sapiens (Hs); conditions: mean n = 2, % of maximum activity of DMSO control, read-out: % Residual activity at 1 μM PIM1
Procedure: as §2

U-2 OS cells = assay: Cell cycle analysis by flow cytometry; type: cell-based, human; conditions: 1 µM, 24 h
Procedure: After treatment with the compounds, cells were trypsinized and washed once in PBS. Cells were fixed for 1 h in ice-cold 70% ethanol, then washed once in PBS, centrifuged at 200 g and resuspended in a PBS buffer containing 100 µg/ml RNase A (Thermo Scientific) and 40 µg/ml propidium iodide (Life Technologies). DNA content was determined using a flow cytometer Attune^TM NxT (Thermofisher) and ten thousand events were collected in each run. The data were analysed using FCS Express 7 Pro software (De Novo).

RnDYRK1A = RnDYRK1A (Rattus norvegicus, UniProt Q63470); assay: ADP-Glo kinase assay; type: biochemical, Rattus norvegicus (Rn)
Procedure: as §2

T2 sequence (P50613 whole entry): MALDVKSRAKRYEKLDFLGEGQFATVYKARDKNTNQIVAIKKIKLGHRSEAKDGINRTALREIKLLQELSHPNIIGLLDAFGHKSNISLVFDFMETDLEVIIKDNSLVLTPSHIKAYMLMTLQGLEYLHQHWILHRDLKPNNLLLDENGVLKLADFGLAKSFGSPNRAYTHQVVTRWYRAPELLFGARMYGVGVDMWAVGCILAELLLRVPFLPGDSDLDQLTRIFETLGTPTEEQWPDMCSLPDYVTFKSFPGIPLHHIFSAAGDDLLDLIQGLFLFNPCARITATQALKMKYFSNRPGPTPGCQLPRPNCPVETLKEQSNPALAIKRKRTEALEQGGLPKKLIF
T2 sequence (P51946 whole entry partner): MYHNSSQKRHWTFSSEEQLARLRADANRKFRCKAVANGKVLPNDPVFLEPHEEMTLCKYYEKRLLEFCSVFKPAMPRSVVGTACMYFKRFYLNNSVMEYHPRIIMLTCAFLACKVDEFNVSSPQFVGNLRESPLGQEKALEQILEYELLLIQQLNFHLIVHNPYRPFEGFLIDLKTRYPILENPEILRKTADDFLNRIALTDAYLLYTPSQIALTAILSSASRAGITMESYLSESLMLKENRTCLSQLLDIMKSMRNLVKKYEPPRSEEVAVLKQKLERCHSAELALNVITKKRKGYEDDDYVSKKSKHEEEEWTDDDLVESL
T2 sequence (P51948 whole entry partner): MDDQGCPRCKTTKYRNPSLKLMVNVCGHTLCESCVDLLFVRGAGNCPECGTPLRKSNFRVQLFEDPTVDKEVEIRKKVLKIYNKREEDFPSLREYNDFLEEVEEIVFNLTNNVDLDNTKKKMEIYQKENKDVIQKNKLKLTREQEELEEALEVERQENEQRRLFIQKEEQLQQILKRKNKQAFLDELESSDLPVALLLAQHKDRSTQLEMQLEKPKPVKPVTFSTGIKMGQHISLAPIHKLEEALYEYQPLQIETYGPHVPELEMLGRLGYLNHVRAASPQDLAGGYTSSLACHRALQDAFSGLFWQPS
T6 sequence (P42336 whole entry): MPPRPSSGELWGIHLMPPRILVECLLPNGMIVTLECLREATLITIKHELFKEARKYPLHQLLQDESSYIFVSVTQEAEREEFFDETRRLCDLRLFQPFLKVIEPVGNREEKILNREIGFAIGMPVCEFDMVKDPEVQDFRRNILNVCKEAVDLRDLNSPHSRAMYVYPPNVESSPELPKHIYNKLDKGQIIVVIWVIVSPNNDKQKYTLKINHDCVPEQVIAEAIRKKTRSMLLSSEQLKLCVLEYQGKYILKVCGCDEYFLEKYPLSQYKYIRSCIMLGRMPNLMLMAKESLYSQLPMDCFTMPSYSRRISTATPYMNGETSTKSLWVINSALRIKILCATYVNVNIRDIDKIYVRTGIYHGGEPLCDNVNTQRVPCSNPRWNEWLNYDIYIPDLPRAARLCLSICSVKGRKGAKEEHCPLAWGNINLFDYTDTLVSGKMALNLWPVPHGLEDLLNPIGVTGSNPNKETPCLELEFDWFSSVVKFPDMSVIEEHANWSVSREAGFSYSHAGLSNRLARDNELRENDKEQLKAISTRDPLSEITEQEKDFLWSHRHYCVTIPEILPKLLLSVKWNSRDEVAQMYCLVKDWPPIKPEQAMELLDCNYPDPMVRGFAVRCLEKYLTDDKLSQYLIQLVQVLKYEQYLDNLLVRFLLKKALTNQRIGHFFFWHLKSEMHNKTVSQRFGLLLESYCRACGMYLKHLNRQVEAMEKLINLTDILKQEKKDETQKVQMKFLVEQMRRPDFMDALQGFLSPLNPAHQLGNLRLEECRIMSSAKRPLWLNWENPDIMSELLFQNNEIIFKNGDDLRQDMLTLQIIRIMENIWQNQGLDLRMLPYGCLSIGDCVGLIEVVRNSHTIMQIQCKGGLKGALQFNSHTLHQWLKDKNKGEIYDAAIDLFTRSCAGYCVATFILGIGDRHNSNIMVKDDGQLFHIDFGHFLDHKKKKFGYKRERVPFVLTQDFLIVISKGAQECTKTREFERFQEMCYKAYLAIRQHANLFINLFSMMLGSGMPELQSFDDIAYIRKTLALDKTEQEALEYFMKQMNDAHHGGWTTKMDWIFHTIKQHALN
Chain of HsPIM1 (P11309 whole entry): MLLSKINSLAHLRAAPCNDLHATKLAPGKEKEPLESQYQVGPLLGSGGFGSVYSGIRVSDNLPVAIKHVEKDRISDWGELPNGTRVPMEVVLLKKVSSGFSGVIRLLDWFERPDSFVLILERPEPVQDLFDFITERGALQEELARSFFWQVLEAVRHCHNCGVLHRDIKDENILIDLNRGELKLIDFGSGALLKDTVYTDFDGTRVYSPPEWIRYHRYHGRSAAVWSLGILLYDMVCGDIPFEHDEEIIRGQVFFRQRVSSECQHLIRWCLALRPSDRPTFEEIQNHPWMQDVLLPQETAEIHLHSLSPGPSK
Chain of HsCdk5/p25 (Q00535 whole entry): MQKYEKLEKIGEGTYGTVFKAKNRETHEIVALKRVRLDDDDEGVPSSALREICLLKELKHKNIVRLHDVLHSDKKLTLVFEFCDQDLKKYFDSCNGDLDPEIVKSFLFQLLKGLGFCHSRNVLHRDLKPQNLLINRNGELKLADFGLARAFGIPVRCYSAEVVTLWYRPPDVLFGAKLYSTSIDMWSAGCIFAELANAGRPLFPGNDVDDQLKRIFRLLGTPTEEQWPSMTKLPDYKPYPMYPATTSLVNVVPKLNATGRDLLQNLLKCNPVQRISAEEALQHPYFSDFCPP
Chain of HsCdk5/p25 (Q15078 99-307 partner limits assumed): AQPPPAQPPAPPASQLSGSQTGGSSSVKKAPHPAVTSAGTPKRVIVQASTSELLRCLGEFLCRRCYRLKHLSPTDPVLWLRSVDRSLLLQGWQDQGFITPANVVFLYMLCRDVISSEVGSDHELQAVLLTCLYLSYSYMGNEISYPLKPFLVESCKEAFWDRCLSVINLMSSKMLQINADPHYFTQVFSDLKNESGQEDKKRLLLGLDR
T5 sequence (Q9UBF8 whole entry): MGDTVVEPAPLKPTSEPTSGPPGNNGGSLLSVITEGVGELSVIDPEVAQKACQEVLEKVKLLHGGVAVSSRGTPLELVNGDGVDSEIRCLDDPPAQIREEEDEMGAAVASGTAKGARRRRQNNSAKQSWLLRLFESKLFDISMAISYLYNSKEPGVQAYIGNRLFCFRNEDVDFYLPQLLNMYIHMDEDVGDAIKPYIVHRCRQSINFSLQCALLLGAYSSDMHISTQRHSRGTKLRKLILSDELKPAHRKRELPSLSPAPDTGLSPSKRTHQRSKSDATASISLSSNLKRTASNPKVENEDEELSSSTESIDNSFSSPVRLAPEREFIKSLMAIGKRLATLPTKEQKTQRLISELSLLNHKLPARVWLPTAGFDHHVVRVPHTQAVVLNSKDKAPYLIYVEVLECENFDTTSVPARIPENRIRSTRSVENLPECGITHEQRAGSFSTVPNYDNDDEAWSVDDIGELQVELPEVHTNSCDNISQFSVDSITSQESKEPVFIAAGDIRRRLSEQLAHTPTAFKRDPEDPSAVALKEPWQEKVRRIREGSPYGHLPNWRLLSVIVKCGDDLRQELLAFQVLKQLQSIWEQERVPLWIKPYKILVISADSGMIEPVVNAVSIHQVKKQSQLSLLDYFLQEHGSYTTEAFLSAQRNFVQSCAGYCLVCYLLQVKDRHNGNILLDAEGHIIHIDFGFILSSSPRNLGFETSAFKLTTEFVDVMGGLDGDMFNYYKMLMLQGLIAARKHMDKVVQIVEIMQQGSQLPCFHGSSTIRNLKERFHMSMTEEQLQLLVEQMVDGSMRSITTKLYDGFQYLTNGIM
T1 sequence (O14986 whole entry): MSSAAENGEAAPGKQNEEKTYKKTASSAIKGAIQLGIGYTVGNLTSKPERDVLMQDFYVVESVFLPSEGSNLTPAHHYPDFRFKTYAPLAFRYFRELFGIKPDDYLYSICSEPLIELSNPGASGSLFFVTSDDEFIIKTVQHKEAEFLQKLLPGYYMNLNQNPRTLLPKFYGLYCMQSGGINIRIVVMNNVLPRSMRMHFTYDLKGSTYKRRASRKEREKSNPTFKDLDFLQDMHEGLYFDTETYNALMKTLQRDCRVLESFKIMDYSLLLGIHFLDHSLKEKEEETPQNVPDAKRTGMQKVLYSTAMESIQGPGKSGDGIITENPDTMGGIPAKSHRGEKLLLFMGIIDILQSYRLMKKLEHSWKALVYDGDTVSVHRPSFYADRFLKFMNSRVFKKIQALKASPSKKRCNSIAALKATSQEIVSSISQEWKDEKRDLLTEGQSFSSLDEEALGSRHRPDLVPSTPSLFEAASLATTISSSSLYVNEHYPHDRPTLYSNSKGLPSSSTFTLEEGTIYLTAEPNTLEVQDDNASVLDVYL

COc1ccc2[nH]c3c(=O)[nH]c4ccc(O)cc4c3c2c1 [Compound 55, 2-Hydroxy-10-methoxy-5,7-dihydro-6H-indolo[2,3-c]quinolin-6-one]
inhibition at 1 µM (PIP5K1B): 33% | inhibition at 1 µM (PIP4K2A): 13% | inhibition at 1 µM (CDK7/cyclin H/MNAT1): 27% | inhibition at 1 µM (CDK6/cyclin D1): 14% | inhibition at 1 µM (GSG2 (Haspin)): 100% | inhibition at 1 µM (PIK3C2G (PI3K-C2 gamma)): 47% | inhibition at 1 µM (PI4KB (PI4K beta)): 41% | inhibition at 1 µM [1]: 53% | remaining activity at 1 µM (HsHaspin; 1 μM, mean n = 2, % of maximum activity of DMSO control, read-out: % Residual activity at 1 μM Haspin): 0% | IC50 (HsHaspin; dose-response curve, each point in duplicate, read-out: Kinase inhibition (IC50) Haspin): 0.002 µM | remaining activity at 1 µM (HsCdk5/p25): 53% | remaining activity at 1 µM (HsGSK3β): 20% | remaining activity at 1 µM (HsCdk9/Cyc E): 17% | remaining activity at 1 µM (HsCdk2/Cyc A): 38% | remaining activity at 1 µM (HsPIM1): 22% | melting point: 202 to 205 °C | % of cycling cells G2/M (U-2 OS cells; DMSO control 6%): 20% | % of cycling cells S (U-2 OS cells; DMSO control 44%): 44% | % of cycling cells G1 (U-2 OS cells; DMSO control 50%): 36% | Selectivity index DYRK/Haspin (RnDYRK1A; IC50 DYRK1A/IC50 Haspin): 65 | IC50 (RnDYRK1A; dose-response curve, each point in duplicate, read-out: Kinase inhibition (IC50) DYRK1A): 0.13 µM | remaining activity (RnDYRK1A; mean n = 2, % of maximum activity of DMSO control, read-out: % Residual activity at 1 μM DYRK1A): 2%
